The values below come from ChEMBL document CHEMBL4400510, “Synthesis and antitubercular evaluation of reduced lipophilic imidazo[1,2-a]pyridine-3-carboxamide derivatives” (Eur J Med Chem, 2019).

Data set [1] deals with Mycobacterium tuberculosis. Nature of the data set: Antitubercular activity against multi drug resistant Mycobacterium tuberculosis 16995 after 7 days by MABA method. It is filed as functional. Conditions: Mycobacterium tuberculosis, 16995, 168 h.
The subject of data set [2] is Mycobacterium tuberculosis. Nature of the data set: Antitubercular activity against multi drug resistant Mycobacterium tuberculosis 16833 after 7 days by MABA method. The format is functional. Conditions: Mycobacterium tuberculosis, 16833, 168 h. (Alamar Blue is a resazurin reagent that responds to reducing activity.)
A short description of data set [3]: Selectivity index, ratio of CC50 for African green monkey Vero cells to MIC>90 multi drug resistant Mycobacterium tuberculosis 16995. It is filed as toxicity. Conditions: read-out: Selectivity Index.

The term MIC90 denotes the lowest concentration that inhibits either 90% of growth or 90% of the strains tested, depending on the study.

Bounds are passed on as bounds.

As to `NNC(=O)c1ccncc1` [ISONIAZID], the MIC90 in data set [1] and in data set [2] was more than 40 µM throughout.
With `O=c1nc(N2CCN(CC3CCCCC3)CC2)sc2c([N+](=O)[O-])cc(C(F)(F)F)cc12` [MACOZINONE], the MIC90 in data set [1] and in data set [2] was less than 0.035 µM in each case.
With `CCc1nc2ccc(Cl)cn2c1C(=O)NCc1ccc(N2CCN(Cc3ccc(OC(F)(F)F)cc3)CC2)cc1`, the MIC90 in data set [1] and in data set [2] was less than 0.035 µM throughout.
Regarding `CCc1nc2ccc(Cl)cn2c1C(=O)NCc1ccc(N2CC3CCC2CN3CC2CCCCC2)cc1` (configuration not stated), the MIC90 in data set [1] and in data set [2] was less than 0.035 µM each time.
`CCc1nc2ccc(Cl)cn2c1C(=O)NCc1ccc(N2CC3CN(c4ccc(OC(F)(F)F)cc4)CC3C2)cc1` (configuration not stated): the MIC90 in data set [1] and in data set [2] was less than 0.035 µM in each case.
For `CCc1nc2ccc(Cl)cn2c1C(=O)NCc1ccc(N2CCN(CC3CCCCC3)CC2)cc1`, the MIC90 in data set [1] and in data set [2] was less than 0.035 µM throughout. In addition, in data set [3], the selectivity ratio was more than 1000.
Take `CO[C@H]1/C=C/O[C@@]2(C)Oc3c(C)c(O)c4c(O)c(c(/C=N/N5CCN(C)CC5)c(O)c4c3C2=O)NC(=O)/C(C)=C\C=C\[C@H](C)[C@H](O)[C@@H](C)[C@@H](O)[C@@H](C)[C@H](OC(C)=O)[C@@H]1C` [RIFAMPIN]: the MIC90 in data set [1] and in data set [2] was more than 40 µM each time.
`CCc1nc2ccc(Cl)cn2c1C(=O)NCc1ccc(N2CC3CN(CC4CCCCC4)CC3C2)cc1` (configuration not stated): the MIC90 in data set [1] and in data set [2] was less than 0.035 µM each time. In data set [3], the selectivity ratio is more than 1000.
As for `CCc1nc2ccc(Cl)cn2c1C(=O)NCc1ccc(N2CCC(c3ccc(OC(F)(F)F)cc3)CC2)cc1` [TELACEBEC], the MIC90 in data set [1] and in data set [2] was less than 0.035 µM each time. Further, the selectivity ratio in data set [3] is more than 1000.
Consider `CCc1nc2ccc(Cl)cn2c1C(=O)NCc1ccc(N2CCC3(CC2)CCN(c2ccc(OC(F)(F)F)cc2)CC3)cc1`, for which the MIC90 in data set [1] and in data set [2] was less than 0.035 µM throughout. Also, the selectivity ratio in data set [3] is more than 1000.
`CCc1nc2ccc(Cl)cn2c1C(=O)NCc1ccc(N2CC3CN(Cc4ccc(OC(F)(F)F)cc4)CC3C2)cc1` (configuration not stated): the MIC90 in data set [1] and in data set [2] was less than 0.035 µM each time. The selectivity ratio in data set [3] is more than 586.
